Results: PubChem BioAssay (NCI)
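Results reflect a 48-hour exposure of cells in 96-well plates to compound at five concentrations. At the TGI there is no net growth.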

How the values were obtained:
Test in all cases: NCI-60 cell line screen, 48 h
HL-60(TB) leukemia = tested on: HL-60(TB) leukemia
K-562 leukemia = tested on: K-562 leukemia
LOX IMVI melanoma = tested on: LOX IMVI melanoma
M14 melanoma = tested on: M14 melanoma
MALME-3M melanoma = tested on: MALME-3M melanoma
MOLT-4 leukemia = tested on: MOLT-4 leukemia
NCI-H23 lung = tested on: NCI-H23 lung
SF-268 CNS = tested on: SF-268 CNS
SF-295 CNS = tested on: SF-295 CNS
SW-620 colon = tested on: SW-620 colon
U251 CNS = tested on: U251 CNS
UO-31 renal = tested on: UO-31 renal
NCI-H522 lung = tested on: NCI-H522 lung

SMILES: C/C(=N/O)c1sc(-c2nc(C)c(/C(C)=N\O)s2)nc1C
- TGI (HL-60(TB) leukemia): > 100 µM
- TGI (K-562 leukemia): > 100 µM
- TGI (LOX IMVI melanoma): > 100 µM
- TGI (M14 melanoma): > 100 µM
- TGI (MALME-3M melanoma): > 100 µM
- TGI (MOLT-4 leukemia): > 100 µM
- TGI (NCI-H23 lung): > 100 µM
- TGI (SF-268 CNS): > 100 µM
- TGI (SF-295 CNS): > 100 µM
- TGI (SW-620 colon): > 100 µM
- TGI (U251 CNS): > 100 µM
- TGI (UO-31 renal): > 100 µM

SMILES: COc1ccc(/C=C2\CCC(CCN3CCOCC3)C2=O)cc1 (stereo not drawn)
- TGI (HL-60(TB) leukemia): > 100 µM
- TGI (K-562 leukemia): > 100 µM
- TGI (LOX IMVI melanoma): > 100 µM
- TGI (M14 melanoma): > 100 µM
- TGI (MALME-3M melanoma): > 100 µM
- TGI (MOLT-4 leukemia): > 100 µM
- TGI (NCI-H23 lung): > 100 µM
- TGI (SF-268 CNS): > 100 µM
- TGI (SF-295 CNS): > 100 µM
- TGI (SW-620 colon): > 100 µM
- TGI (UO-31 renal): > 100 µM

SMILES: COC12OCCN(C)C1=CC(=O)C1(C)N=NCC12 (stereo not drawn)
- TGI (K-562 leukemia): > 100 µM
- TGI (LOX IMVI melanoma): > 100 µM
- TGI (M14 melanoma): > 100 µM
- TGI (MALME-3M melanoma): > 100 µM
- TGI (MOLT-4 leukemia): > 100 µM
- TGI (NCI-H23 lung): > 100 µM
- TGI (NCI-H522 lung): > 100 µM
- TGI (SF-295 CNS): > 100 µM
- TGI (SW-620 colon): > 100 µM
- TGI (U251 CNS): > 100 µM
- TGI (UO-31 renal): > 100 µM

SMILES: CCCCCCCCCCCCC(Br)C(C)=O (stereo not drawn)
- TGI (HL-60(TB) leukemia): > 100 µM
- TGI (LOX IMVI melanoma): > 100 µM
- TGI (M14 melanoma): > 100 µM
- TGI (MALME-3M melanoma): > 100 µM
- TGI (NCI-H23 lung): > 100 µM
- TGI (NCI-H522 lung): > 100 µM
- TGI (SF-268 CNS): > 100 µM
- TGI (SF-295 CNS): > 100 µM
- TGI (SW-620 colon): > 100 µM
- TGI (U251 CNS): > 100 µM
- TGI (UO-31 renal): > 100 µM

SMILES: O=C(CC1(O)C(=O)Nc2c(Cl)cc(Cl)cc21)c1ccc(F)cc1 (stereo not drawn)
- TGI (LOX IMVI melanoma): 66.5 µM
- TGI (M14 melanoma): > 100 µM
- TGI (MALME-3M melanoma): > 100 µM
- TGI (NCI-H23 lung): 70.9 µM
- TGI (SF-268 CNS): > 100 µM
- TGI (SF-295 CNS): > 100 µM
- TGI (SW-620 colon): > 100 µM
- TGI (U251 CNS): 97.1 µM
- TGI (UO-31 renal): > 100 µM

SMILES: CC1=C(C(=O)CC(=O)C(=O)Nc2ccc(C)c(C)c2)Sc2ccccc2N1
- TGI (LOX IMVI melanoma): > 100 µM
- TGI (M14 melanoma): > 100 µM
- TGI (MALME-3M melanoma): > 100 µM
- TGI (NCI-H23 lung): > 100 µM
- TGI (NCI-H522 lung): > 100 µM
- TGI (SF-268 CNS): > 100 µM
- TGI (SF-295 CNS): > 100 µM
- TGI (SW-620 colon): > 100 µM
- TGI (U251 CNS): > 100 µM
- TGI (UO-31 renal): > 100 µM

SMILES: NC(N)=NS(=O)(=O)c1ccc(NC(=O)c2cccc3c(N)c4ccccc4nc23)cc1
- TGI (K-562 leukemia): > 100 µM
- TGI (LOX IMVI melanoma): > 100 µM
- TGI (M14 melanoma): > 100 µM
- TGI (MALME-3M melanoma): > 100 µM
- TGI (MOLT-4 leukemia): > 100 µM
- TGI (NCI-H23 lung): > 100 µM
- TGI (NCI-H522 lung): > 100 µM
- TGI (SF-268 CNS): > 100 µM
- TGI (SF-295 CNS): > 100 µM
- TGI (SW-620 colon): > 100 µM
- TGI (U251 CNS): > 100 µM
- TGI (UO-31 renal): > 100 µM

SMILES: Cc1nc2c3c(ccc2[nH]c1=O)C(=O)c1ccccc1C3=O
- TGI (HL-60(TB) leukemia): > 100 µM
- TGI (K-562 leukemia): > 100 µM
- TGI (LOX IMVI melanoma): > 100 µM
- TGI (M14 melanoma): > 100 µM
- TGI (MALME-3M melanoma): > 100 µM
- TGI (NCI-H23 lung): > 100 µM
- TGI (NCI-H522 lung): > 100 µM
- TGI (SF-268 CNS): > 100 µM
- TGI (SF-295 CNS): > 100 µM
- TGI (SW-620 colon): > 100 µM
- TGI (U251 CNS): > 100 µM
- TGI (UO-31 renal): > 100 µM
